PMC9000318, “Identification and Validation of a New Peptide Targeting Pancreatic Beta Cells” (Molecules, 2022)
Ends that are not written are not given here. * marks the point of attachment. FITC = O=C1OC2(c3ccc(O)cc3Oc3cc(O)ccc32)c2ccc(NC(=S)*)cc21

Columns and labels:
primary islet cells = tested on: primary islet cells
Description: Mice insulinoma cell line MIN6 were obtained from the Academy of Sciences Cell Bank of Shanghai and routinely cultured in RPMI-1640 medium (Gibco, Shanghai, China), supplemented with 10% (v/v) fetal bovine serum (FBS) and 1% (v/v) penicillin-streptomycin. The murine pancreatic cancer cell line KPC and the hepatocellular carcinoma cell line (HCC-LM3) were kindly provided by Tingbo Liang’s Research Group (Zhejiang University, Hangzhou, China). KPC cells were maintained in RPMI-1640 medium (Gibco, Shanghai, China), supplemented with 20% FBS, 1% sodium pyruvate (100×), and 1% MEM Non-Essential Amino Acids (NEAA 100×). HCC-LM3 cells were maintained in Dulbecco’s modified Eagle’s medium (DMEM; Gibco, Shanghai, China) with 10% FBS and 1% (v/v) penicillin-streptomycin. The primary islets were isolated by collagenase digestion from ICR (Institute of Cancer Research) mice and separated by density gradient centrifugation as previously described. The islets were incubated at 37 °C in 2 mL RPMI-1640 medium at a density of 100–150 islets per well in 6-well plates and maintained at 37 °C with 5% CO2.
To investigate the effect of LNTPLKS on the viability of the islet cells, different concentrations of LNTPLKS (0, 0.5, 1, 10 μM) were separately co-incubated with islet cells in 96-well plates (triplicate wells for each concentration of peptide). Twenty-four hours later, MTT was added and incubated for 4 h. DMSO was added after centrifugation and the color development was read at an OD of 570 nm. Islet cells were incubated with different concentrations of peptides for 24 h at 37 °C. The supernatant was discarded, cells were rinsed twice with PBS, KRB buffer containing 3.3 mM glucose was added, and the cells were incubated for 30 min at 37 °C. The supernatant was discarded and cells were incubated with KRB buffer containing low glucose (3.3 mM) or high glucose (16.7 mM) for 1 h.

islet cells [1] = assay: FACS binding to islet cells; assay type: cell-based, ICR mouse; settings: flow cytometry, FITC-labeled peptide, 2 h incubation, islets digested to single cells
Description: (§1) Purified FITC-labeled candidate peptides were used for the peptide-based immunofluorescence assay to confirm the selective binding of the selected peptides to the used cells. FITC-labeled peptide-based immunofluorescence assay was performed, and FITC-labeled peptide (1 μM) was added to each well and then incubated for 2 h at room temperature. The wells were washed with PBS three times and directly mounted with vectashield mounting medium after DAPI staining. The cells were visualized under fluorescence microscope. In addition, to determine the binding location of the peptide, MIN6 cells were labeled with LNTPLKS-FITC and further observed under confocal microscope. For fluorescence activated cell sorting, purified islets and KPC cells were incubated in 6 well plates; 24 h later, FITC-labeled peptide was added with a final concentration of 1 μM. After 2 h of incubation, cells were washed with PBS three times and harvested for FACS to quantitatively analyze the binding affinity of the peptide to the different cell types (islets was digested to single cells before FACS analyzing).

KPC cells = assay: FACS binding to KPC cells; assay type: cell-based, murine; settings: flow cytometry, FITC-labeled peptide, 2 h incubation
Description: as §1

[2] = tested on: islets in pancreas cryosections; assay: Binding to in situ islets, mouse pancreas cryosections; parameters: species or system ICR mice; settings: 2 h incubation, anti-insulin counterstain, fluorescence microscope
Description: (§2) In order to evaluate whether the LNTPLKS-FITC peptide could directly bind islets within the pancreas, the pancreas of ICR mice was collected and frozen sections were prepared. The cryosections were incubated with anti-insulin solution and LNTPLKS-FITC 2 h after treatment with BSA, followed by observation under fluorescence microscope. To determine whether LNTPLKS could bind to human islet, staining of paraffin-embedded human tissue sections were performed. Briefly, slices were deparaffinized and subsequently permeabilized by heating in antigen-unmasking solutions. After blocking with 2% BSA, slices were incubated with anti-insulin antibody at 4 °C overnight. Cy3-conjugated goat anti-mouse IgG (1:300 dilutions) antibody was incubated for 50 min at 24 °C. Then, the slices were incubated with DAPI and LNTPLKS-FITC or control peptide for 1 h at room temperature. Tissue slides were analyzed using a fluorescence microscope. To further confirm the specificity of peptide to islet, we transplanted islets under renal capsule of the ICR mice. Kidney slices containing islets grafts were prepared and incubated with LNTPLKS-FITC peptide. After 2 h of incubation, the slices were observed under fluorescence microscope.

islets grafts = assay: Binding to islet grafts under the renal capsule, kidney slices; settings: islets transplanted under renal capsule of ICR mice, slices incubated 2 h
Description: as §2

MIN6 cells [3] = assay: FITC-labeled peptide-based immunofluorescence assay (ICC) on MIN6 cells; parameters: species or system mice; settings: FITC-labeled peptide 1 μM, 2 h, room temperature; fluorescence microscope; KPC cells as cell control
Description: as §1

MIN6 cells [4] = assay: Confocal microscopy, localization of the peptide in MIN6 cells; assay type: cell-based, mice; settings: DAPI counterstain
Description: as §1

islet cells [5] = assay: FITC-labeled peptide-based immunofluorescence assay on purified islets; assay type: cell-based, ICR mouse; settings: fluorescence microscope
Description: as §1

human islets = assay: Binding to human islets, paraffin-embedded pancreatic tissue sections; settings: paraffin sections from a donor, co-stained with anti-insulin antibody, 1 h room temperature
Description: as §2

pancreatic islet = assay: In vivo targeting of pancreatic islets after tail vein injection; parameters: species or system mice; settings: pancreas sliced, data not shown
Description: The final goal of developing a beta cell-specific molecular probe is to provide a non-invasive, in vivo imaging method for measuring BCM during diabetes progression and tracking islet grafts after islet transplantation, so that necessary and timely intervention can be performed. Therefore, all presumed beta cell-specific probes screened in vitro have to be validated by in vivo studies. As the first step, we tested islet specificity using pancreatic slices and islet graft-containing slices. […] However, when it comes to in vivo studies, the results were obscure. We injected FITC-conjugated LNTPLKS peptide into the mice via tail vein and the pancreas was then sliced to detect the targeting of the peptide in the pancreatic islet. The fluorescence within pancreas was rather weak (data not shown). The unsatisfied result might be attributed to the degradation of the peptide in the body. Increasing peptide stability and its circulation time will facilitate cellular uptake. In the following study, the peptide LNTPLKS will be further processed by chemical modification (such as PEGylation) to protect the peptide from degradation in vivo without changing the targeting ability of the peptide, or by conjugating it with other imaging materials (iron oxide nanoparticle, radionuclide, etc.) to be monitored by MR, SPECT, or other imaging modalities with high sensitivity.

MIN6 tumor = settings: mouse, in vivo, 5 mg/kg
Description: (§3) In total, 2 × 10^6 MIN6 cells and HCC-LM3 cells were subcutaneously inoculated in male nude mice for 4 weeks separately. After 16 days, the tumor grew to approximately 1.0 cm^3. […] The tumor, spleen, kidney and liver were harvested and their fluorescence intensity was quantified by in vivo imaging system (IVIS).

LM3 tumor = settings: mouse, in vivo, 5 mg/kg
Description: as §3

Substance | viability of the islet cells (primary islet cells; MTT, 24 h co-incubation, peptide concentration between 500 and 1 μM, triplicate wells) | glucose-stimulated insulin secretion (GSIS) (primary islet cells; peptide 24 h at 37 °C, between 500 and 1 μM, KRB buffer high glucose 16.7 mM, 1 h, insulin ELISA, three tests) | basical insulin secretion (BIS) (primary islet cells; peptide 24 h at 37 °C, between 500 and 1 μM, KRB buffer low glucose 3.3 mM, 1 h, insulin ELISA, three tests) | mean fluorescence peak point, islet group (islet cells [1]) | mean fluorescence peak point, KPC cell group (KPC cells) | fluorescence of islets in mouse pancreas cryosections [2] | fluorescence of islets grafts in kidney slices (islets grafts) | FITC signal in MIN6 cells (MIN6 cells [3]) | localization of the peptide on MIN6 cells (MIN6 cells [4]) | affinity for the islet cells (fluorescent images) (islet cells [5]) | binding to human islets in pancreatic tissue sections (human islets) | fluorescence within pancreas after injection (pancreatic islet) | fluorescence average counts, kidney (MIN6 tumor) | fluorescence average counts, liver (MIN6 tumor) | fluorescence average counts, spleen (MIN6 tumor) | fluorescence average counts, tumor (MIN6 tumor) | fluorescence average counts, kidney (LM3 tumor) | fluorescence average counts, liver (LM3 tumor) | fluorescence average counts, spleen (LM3 tumor) | fluorescence average counts, tumor (LM3 tumor)
LNTPLKS [seven-amino acid peptide targeting beta cell line MIN6, screened by phage display] | only slightly affected | only slightly affected | only slightly affected | shifted to the right side | no such shift |  |  |  |  |  |  |  |  |  |  |  |  |  |  | 
SPPTGIN-FITC [random peptide SPPTGIN conjugated with FITC at the N-terminus, negative control, reference compound] |  |  |  |  |  | no fluorescent signal was merged with the anti-insulin signal | no fluorescence was observed |  |  |  |  |  |  |  |  |  |  |  |  | 
{FITC}-LNTPLKS [LNTPLKS-FITC, LNTPLKS conjugated with fluorescein isothiocyanate (FITC) at the N-terminus] |  |  |  |  |  | fluorescent, whereas the surrounding exocrine tissues were not | fluorescent | significantly higher FITC signal | internalized to the cytoplasm | high affinity | identifiable within the islets and co-localized with insulin-producing cells | rather weak | 1.14 × 10^3 counts | 1.81 × 10^3 counts | 4.84 × 10^2 counts | 1.80 × 10^3 counts | 1.20 × 10^3 counts | 2.15 × 10^3 counts | 5.24 × 10^2 counts | 9.47 × 10^2 counts
